In patent publication US8680159B2, “Bradykinin 1 receptor modulating compounds” (Gruenenthal GmbH, priority 2010, dated 2014):

biological target: T1, B1R receptor of the rat (CHO K1 cells stably transfected with the B1R gene of the rat) (Rattus norvegicus, UniProt P97583); assay: Functional study on the bradykinin receptor 1 (B1R), Ca2+ fluorescence (Fluo-4) FLIPR/Novostar assay, rB1R cells; format: cell-based; conditions: CHO-K1, 10 μM, read-out: % Inhibition (r-B1R) at 10 μM
T1 construct: expressed in transfected cells; host or cells: CHO K1 cells (Chinese hamster ovary), stably transfected
T1 sequence (P97583 1-337): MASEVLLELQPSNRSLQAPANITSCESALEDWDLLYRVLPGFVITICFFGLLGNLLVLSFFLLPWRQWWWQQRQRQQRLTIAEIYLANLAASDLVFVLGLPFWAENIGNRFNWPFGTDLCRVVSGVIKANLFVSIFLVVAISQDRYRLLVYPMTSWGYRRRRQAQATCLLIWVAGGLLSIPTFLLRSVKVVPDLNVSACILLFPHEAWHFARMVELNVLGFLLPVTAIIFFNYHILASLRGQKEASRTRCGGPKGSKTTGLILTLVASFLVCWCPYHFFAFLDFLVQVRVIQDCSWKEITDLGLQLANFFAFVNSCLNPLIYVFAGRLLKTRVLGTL
Outline: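 Ca2+ influx (Fluo-4, peak fluorescence, λex 488/λem 540 nm) was measured in CHO K1 lines expressing rat or human B1R. After a 10 μM test-compound pre-addition scoring % activation, cells received EC80 agonist: Des-Arg9-bradykinin for rat, Lys-Des-Arg9-bradykinin for human. Antagonism was expressed as % of maximum inhibition, with IC50 from varied concentrations.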

Row | inhibition at 10 µM [%] | Structure (SMILES)
1 | 109 | CN(C(=O)c1ccc2c(c1)C(NC(=O)C1CCCCC1)CC2)C1CCN(c2ccc3cnccc3c2)CC1 (stereo not shown) [CC_H-360, 3-(Cyclohexanecarbonylamino)-N-(1-isoquinolin-6-yl-piperidin-4-yl)-N-methyl-2,3-dihydro-1H-indene-5-carboxylic acid amide]
2 | 110 | CN(C(=O)c1ccc2c(c1)C(NC(=O)C1CC1)CC2)C1CCN(c2ccc3cnccc3c2)CC1 (stereo not shown) [CC_H-361, 3-(Cyclopropanecarbonylamino)-N-(1-isoquinolin-6-yl-piperidin-4-yl)-N-methyl-2,3-dihydro-1H-indene-5-carboxylic acid amide]
3 | 110 | CN(C(=O)c1ccc2c(c1)C(NC(=O)CC(C)(C)C)CC2)C1CCN(c2ccc3cnccc3c2)CC1 (stereo not shown) [CC_H-362, 3-(3,3-Dimethyl-butanoylamino)-N-(1-isoquinolin-6-yl-piperidin-4-yl)-N-methyl-2,3-dihydro-1H-indene-5-carboxylic acid amide]
4 | 89 | COCC(=O)NC1CCc2ccc(C(=O)N(C)C3CCN(c4ccc5cnccc5c4)CC3)cc21 (stereo not shown) [CC_H-363, N-(1-Isoquinolin-6-yl-piperidin-4-yl)-3-[(2-methoxy-acetyl)amino]-N-methyl-2,3-dihydro-1H-indene-5-carboxylic acid amide]
5 | 111 | CN(C(=O)c1ccc2c(c1)C(NC(=O)c1cccc(C(F)(F)F)c1Cl)CC2)C1CCN(c2ccc3cnccc3c2)CC1 (stereo not shown) [CC_H-364, 3-[[2-Chloro-3-(trifluoromethyl)-benzoyl]amino]-N-(1-isoquinolin-6-yl-piperidin-4-yl)-N-methyl-2,3-dihydro-1H-indene-5-carboxylic acid amide]
6 | 64 | CN(C(=O)c1ccc2c(c1)C(NC(=O)Nc1ccccc1Cl)CC2)C1CCN(c2ccc3cnccc3c2)CC1 (stereo not shown) [CC_H-365, 3-[[(2-Chlorophenyl)-carbamoyl]amino]-N-(1-isoquinolin-6-yl-piperidin-4-yl)-N-methyl-2,3-dihydro-1H-indene-5-carboxylic acid amide]
7 | 92 | CN(C(=O)c1ccc2c(c1)C(NC(=O)Nc1c(Cl)cccc1Cl)CC2)C1CCN(c2ccc3cnccc3c2)CC1 (stereo not shown) [CC_H-366, 3-[[(2,6-Dichloro-phenyl)-carbamoyl]amino]-N-(1-isoquinolin-6-yl-piperidin-4-yl)-N-methyl-2,3-dihydro-1H-indene-5-carboxylic acid amide]
8 | 91 | CN(C(=O)NC1CCc2ccc(C(=O)N(C)C3CCN(c4ccc5cnccc5c4)CC3)cc21)c1ccccc1Cl (stereo not shown) [CC_H-375, 3-[[(2-Chlorophenyl)-methyl-carbamoyl]amino]-N-(1-isoquinolin-6-yl-piperidin-4-yl)-N-methyl-2,3-dihydro-1H-indene-5-carboxylic acid amide]

Further lines, the molecule ahead of its results:

Row | Structure (SMILES) | inhibition at 10 µM [%]
9 | Cc1cc(N2CCC(N(C)C(=O)c3ccc4c(c3)C(N(C)C(=O)Nc3cccc(Cl)c3Cl)CC4)CC2)cc(C)n1 (stereo not shown) [CC_H-339, 3-[[(2,3-Dichloro-phenyl)-carbamoyl]-methyl-amino]-N-[1-(2,6-dimethyl-pyridin-4-yl)-piperidin-4-yl]-N-methyl-2,3-dihydro-1H-indene-5-carboxylic acid amide] | 92
10 | Cc1cc(N2CCC(N(C)C(=O)c3ccc4c(c3)C(N(C)C(=O)Nc3cc(Cl)cc(Cl)c3)CC4)CC2)cc(C)n1 (stereo not shown) [CC_H-341, 3-[[(3,5-Dichloro-phenyl)-carbamoyl]-methyl-amino]-N-[1-(2,6-dimethyl-pyridin-4-yl)-piperidin-4-yl]-N-methyl-2,3-dihydro-1H-indene-5-carboxylic acid amide] | 95
11 | Cc1cc(N2CCC(N(C)C(=O)c3ccc4c(c3)C(N(C)C(=O)Nc3ccc(Cl)cc3Cl)CC4)CC2)cc(C)n1 (stereo not shown) [CC_H-342, 3-[[(2,4-Dichlorophenyl)-carbamoyl]-methyl-amino]-N-[1-(2,6-dimethyl-pyridin-4-yl)-piperidin-4-yl]-N-methyl-2,3-dihydro-1H-indene-5-carboxylic acid amide] | 107
12 | Cc1cc(N2CCC(N(C)C(=O)c3ccc4c(c3)C(N(C)C(=O)Nc3cc(C(F)(F)F)ccc3Cl)CC4)CC2)cc(C)n1 (stereo not shown) [CC_H-343, 3-[[[2-Chloro-5-(trifluoromethyl)-phenyl]-carbamoyl]-methyl-amino]-N-[1-(2,6-dimethyl-pyridin-4-yl)-piperidin-4-yl]-N-methyl-2,3-dihydro-1H-indene-5-carboxylic acid amide] | 67
13 | Cc1cc(N2CCC(N(C)C(=O)c3ccc4c(c3)C(N(C)C(=O)Nc3ccc(Cl)cc3C(F)(F)F)CC4)CC2)cc(C)n1 (stereo not shown) [CC_H-344, 3-[[[4-Chloro-2-(trifluoromethyl)-phenyl]-carbamoyl]-methyl-amino]-N-[1-(2,6-dimethyl-pyridin-4-yl)-piperidin-4-yl]-N-methyl-2,3-dihydro-1H-indene-5-carboxylic acid amide] | 90
14 | Cc1cc(N2CCC(N(C)C(=O)c3ccc4c(c3)C(N(C)C(=O)Nc3ccc(F)c(Cl)c3)CC4)CC2)cc(C)n1 (stereo not shown) [CC_H-346, 3-[[(3-Chloro-4-fluoro-phenyl)-carbamoyl]-methyl-amino]-N-[1-(2,6-dimethyl-pyridin-4-yl)-piperidin-4-yl]-N-methyl-2,3-dihydro-1H-indene-5-carboxylic acid amide] | 70
15 | Cc1ccc(NC(=O)N(C)C2CCc3ccc(C(=O)N(C)C4CCN(c5cc(C)nc(C)c5)CC4)cc32)c(C)c1 (stereo not shown) [CC_H-347, 3-[[(2,4-Dimethyl-phenyl)-carbamoyl]-methyl-amino]-N-[1-(2,6-dimethyl-pyridin-4-yl)-piperidin-4-yl]-N-methyl-2,3-dihydro-1H-indene-5-carboxylic acid amide] | 57
16 | Cc1cc(N2CCC(N(C)C(=O)c3ccc4c(c3)C(N(C)C(=O)N(C)c3ccccc3Cl)CC4)CC2)cc(C)n1 (stereo not shown) [CC_H-349, 3-[[(2-Chlorophenyl)-methyl-carbamoyl]-methyl-amino]-N-[1-(2,6-dimethyl-pyridin-4-yl)-piperidin-4-yl]-N-methyl-2,3-dihydro-1H-indene-5-carboxylic acid amide] | 80
17 | Cc1cc(N2CCC(N(C)C(=O)c3ccc4c(c3)C(N(C)C(=O)N(C)c3ccc(Cl)cc3Cl)CC4)CC2)cc(C)n1 (stereo not shown) [CC_H-350, 3[[(2,4-Dichlorophenyl)-methyl-carbamoyl]-methyl-amino]-N-[1-(2,6-dimethyl-pyridin-4-yl)-piperidin-4-yl]-N-methyl-2,3-dihydro-1H-indene-5-carboxylic acid amide] | 108
18 | Cc1cc(N2CCC(N(C)C(=O)c3ccc4c(c3)C(N(C)C(=O)CC(C)C)CC4)CC2)cc(C)n1 (stereo not shown) [CC_H-352, N-[1-(2,6-Dimethyl-pyridin-4-yl)-piperidin-4-yl]-N-methyl-3-[methyl-(3-methyl-butanoyl)-amino]-2,3-dihydro-1H-indene-5-carboxylic acid amide] | 110
19 | CCCC(=O)N(C)C1CCc2ccc(C(=O)N(C)C3CCN(c4cc(C)nc(C)c4)CC3)cc21 (stereo not shown) [CC_H-353, 3-(Butanoyl-methyl-amino)-N-[1-(2,6-dimethyl-pyridin-4-yl)-piperidin-4-yl]-N-methyl-2,3-dihydro-1H-indene-5-carboxylic acid amide] | 84
20 | Cc1cc(N2CCC(N(C)C(=O)c3ccc4c(c3)C(N(C)C(=O)CCC3CCCC3)CC4)CC2)cc(C)n1 (stereo not shown) [CC_H-354, 3-(3-Cyclopentyl-propanoyl-methyl-amino)-N-[1-(2,6-dimethyl-pyridin-4-yl)-piperidin-4-yl]-N-methyl-2,3-dihydro-1H-indene-5-carboxylic acid amide] | 110
21 | Cc1cc(N2CCC(N(C)C(=O)c3ccc4c(c3)C(N(C)S(=O)(=O)Cc3cccc(C(F)(F)F)c3)CC4)CC2)cc(C)n1 (stereo not shown) [CC_H-355, N-[1-(2,6-Dimethyl-pyridin-4-yl)-piperidin-4-yl]-N-methyl-3-[methyl-[[3-(trifluoromethyl)phenyl]-methylsulfonyl]-amino]-2,3-dihydro-1H-indene-5-carboxylic acid amide] | 96
22 | CN(C(=O)c1ccc2c(c1)C(NC(=O)c1cc(F)ccc1Cl)CC2)C1CCN(c2ccc3cnccc3c2)CC1 (stereo not shown) [CC_H-356, 3-[(2-Chloro-5-fluoro-benzoyl)amino]-N-(1-isoquinolin-6-yl-piperidin-4-yl)-N-methyl-2,3-dihydro-1H-indene-5-carboxylic acid amide] | 109
23 | CN(C(=O)c1ccc2c(c1)C(NC(=O)c1cc(C(F)(F)F)ccc1Cl)CC2)C1CCN(c2ccc3cnccc3c2)CC1 (stereo not shown) [CC_H-357, 3-[[2-Chloro-5-(trifluoromethyl)-benzoyl]amino]-N-(1-isoquinolin-6-yl-piperidin-4-yl)-N-methyl-2,3-dihydro-1H-indene-5-carboxylic acid amide] | 110
24 | Cc1ccc(F)c(C(=O)NC2CCc3ccc(C(=O)N(C)C4CCN(c5ccc6cnccc6c5)CC4)cc32)c1Cl (stereo not shown) [CC_H-358, 3-[(2-Chloro-6-fluoro-3-methyl-benzoyl)amino]-N-(1-isoquinolin-6-yl-piperidin-4-yl)-N-methyl-2,3-dihydro-1H-indene-5-carboxylic acid amide] | 111
25 | CN(C(=O)c1ccc2c(c1)C(NC(=O)c1cc(Cl)ccc1Cl)CC2)C1CCN(c2ccc3cnccc3c2)CC1 (stereo not shown) [CC_H-359, 3-[(2,5-Dichloro-benzoyl)amino]-N-(1-isoquinolin-6-yl-piperidin-4-yl)-N-methyl-2,3-dihydro-1H-indene-5-carboxylic acid amide] | 110
